The values below come from patent publication US7282507B2, “Indole derivatives as selective androgen receptor modulators (SARMS)” (Janssen Pharmaceutica N.V., priority 2004, dated 2007).

SMILES strings stand for the structures.

The first experiment addresses T1, androgen receptor (AdEasy+rAR, L929 cells) (Rattus norvegicus, UniProt P15207).
T1 construct: expressed in transfected cells; host or cells: L929 cells transduced with adenovirus AdEasy+rAR
T1 sequence (P15207 1-902): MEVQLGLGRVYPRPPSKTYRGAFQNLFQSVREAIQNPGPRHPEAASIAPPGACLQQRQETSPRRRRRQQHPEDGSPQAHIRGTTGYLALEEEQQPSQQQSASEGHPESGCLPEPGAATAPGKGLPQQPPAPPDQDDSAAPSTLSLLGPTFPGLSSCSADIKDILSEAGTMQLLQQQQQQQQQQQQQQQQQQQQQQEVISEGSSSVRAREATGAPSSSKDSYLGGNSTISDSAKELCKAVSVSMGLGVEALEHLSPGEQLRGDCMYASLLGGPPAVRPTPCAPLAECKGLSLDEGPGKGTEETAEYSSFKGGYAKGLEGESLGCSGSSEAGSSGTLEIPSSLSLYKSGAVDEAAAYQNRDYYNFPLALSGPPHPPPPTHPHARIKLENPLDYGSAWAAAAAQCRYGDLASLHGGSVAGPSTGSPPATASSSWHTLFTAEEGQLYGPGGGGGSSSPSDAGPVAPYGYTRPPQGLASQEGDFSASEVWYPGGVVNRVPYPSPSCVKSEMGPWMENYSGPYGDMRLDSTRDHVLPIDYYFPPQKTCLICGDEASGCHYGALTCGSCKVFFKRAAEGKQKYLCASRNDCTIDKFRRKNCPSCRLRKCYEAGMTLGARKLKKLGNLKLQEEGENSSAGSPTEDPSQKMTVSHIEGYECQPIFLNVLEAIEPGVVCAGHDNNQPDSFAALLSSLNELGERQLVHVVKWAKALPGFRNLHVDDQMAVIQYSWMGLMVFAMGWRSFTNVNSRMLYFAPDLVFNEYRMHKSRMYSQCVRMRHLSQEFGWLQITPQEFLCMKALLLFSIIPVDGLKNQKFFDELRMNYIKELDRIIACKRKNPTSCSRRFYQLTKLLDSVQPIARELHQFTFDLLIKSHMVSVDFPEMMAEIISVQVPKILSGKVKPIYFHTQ
Kind of experiment: L929 Androgen Receptor Functional Assay, Adenovirus Transduction. It counts as cell-based. The conditions noted are these: agonist testing, 3000 nM. As for the experimental part: L929 cells were plated in 96-well plates at 20,000 cells per well, in DMEM/F12 (GIBCO) containing 10% (v/v) charcoal-treated fetal bovine serum (Hyclone) and lacking phenol red. The plates were then incubated overnight at 37° C. in 5% (v/v) humidified CO2.
Test compound dilutions were prepared in 100% (v/v) DMSO, if necessary. Each dilution was made to 1250× the final desired assay concentration.
First, 2 mL of DMEM/F12 lacking phenol red was pipetted into the wells of a 2-mL 96-well assay block. Next, 4 μL of the 1250× test compound dilutions were pipetted into each well of the assay block. The mixtures within the well were then carefully mixed by pipette.
In a 15 mL or 50 mL sterile centrifuge tube, a 2.5 nM (2.5×) dilution of R1881 (methyl-trienolone) in DMEM/F12 lacking phenol red was prepared.
In a second 15 mL or 50 mL centrifuge tube a solution containing an equal volume of DMEM to the first and an equal volume of 100% (v/v) DMSO to the volume of R1881 used in the first tube was prepared.
In a 15 mL or 50 mL sterile centrifuge tube, a dilution in DMEM/F12 of the adenovirus AdEasy+rAR at an moi of 1:500 per well was prepared.
The medium was removed from the 96-well plates by inversion and dried, inverted, very briefly. As soon as possible after medium removal, 40 μL of the diluted unlabeled test compound was added to each well, in duplicate. To each well designated for antagonist testing was added 40 μL of the 2.5 nM R1881 dilution to the wells for antagonist testing. To each well designated for agonist testing was added 40 μL of the DMSO dilution. Then 20 μL of the diluted adenovirus were added to all wells. The plates were incubated for 48 hours at 37° C. in 5% (v/v) humidified CO2.
To each well was added 100 μL of Steady-Glo luciferase assay substrate (Promega) and the plates were placed on a rotary shaker for 1 min. The plates were then incubated at room temperature in the dark for one hour. The contents of each well were then transferred to a white microtiter plate (Packard) and read on a Luminoskan Ascent (Thermo Lab Systems).
L929 AR percent activity was determined by testing dilutions of the test compound using a concentration of 3000 nM unless otherwise noted. L929 percent inhibition was determined by testing dilutions of the test compound using a concentration of 3000 nM. […] Luciferase activity per well were measured and EC50s and IC50s determined by linear regression.
Consider `CC(O)(CSCC(F)(F)F)c1cc2cc(C#N)c(C(F)(F)F)cc2[nH]1` (racemic) [Compound 211], for which the “% Activity, L929 androgen receptor functional assay” value was −1%.
On to `CC(O)(CSc1ccc(N)cc1)c1cc2cc(Cl)c(C(F)(F)F)cc2n1S(C)(=O)=O` (racemic) [Compound 125], for which the “% Activity, L929 androgen receptor functional assay” value is −5%.

A further experiment relates to testosterone-enhanced ventral prostate and seminal vesicle weights. The experiment in a line: Ventral Prostate and Seminal Vesicle Weight in vivo Assay. Further: key: 'active' if the non weight adjusted prostate weight was ≦40 mg or the % Inhibition prostate weight, body weight adjusted was ≧40% @ 2 mg/day dosage; ID50's, if determined, of ≦15 mg/day also indicated an 'active' compound; listed herein as 'inactive' as they did not meet the specified criteria defined above. Details: species or system rat. The conditions noted are these: immature castrated male Sprague Dawley rats, once daily for five days, usually orally 40 mg/kg, with testosterone propionate 2 mg/kg s.c. As for the experimental part:
Immature (approximately 50 g) castrated male Sprague Dawley rats (Charles River) were treated once daily for five days with test compound (usually given orally at 40 mg/kg in a volume of 0.3 mL, in 30% cyclodextrin or 0.5% methylcellulose vehicle) and with testosterone propionate (given subcutaneously by injection at the nape of the neck at 2 mg/kg, in a volume of 0.1 mL in sesame oil). On the sixth day, the rats were euthanized by asphyxiation in carbon dioxide. Ventral prosatates and seminal vesicles were removed and their wet weights determined.
A test compound was said to be “active” if the non weight adjusted prostate weight was ≦40 mg or the % Inhibition prostate weight, body weight adjusted was ≧40% @ 2 mg/day dosage.
With `CCSCC(C)(O)c1cc2cc(C#N)c(C)cc2[nH]1` (racemic) [Compound 446], the “active / inactive: inhibition of testosterone-enhanced prostate weight” value (“active / inactive: inhibition” for short) is “inactive”.
Take `CCSCC(C)(O)c1cc2cc(Cl)c(C#N)cc2[nH]1` (single isomer, unassigned) [Compound 228]: the “active / inactive: inhibition” value was “inactive”.
On to `O=[N+]([O-])c1cc2cc(C3(O)CCSC3)[nH]c2cc1C(F)(F)F` (racemic) [Compound 18], for which the “active / inactive: inhibition” value is “inactive”.
Same read-out and setting: to `CCSCC(C)(O)c1cc2cc(C#N)c(C(F)(F)F)cc2n1CC(F)(F)F` (racemic) [Compound 237] belongs “active”; to `CC(C)(O)c1[nH]c2cc(C(F)(F)F)c(C#N)cc2c1C#N` [Compound 295], “inactive”.
The same measure, in the same setting: to `CCc1c(C(C)(O)CS(=O)(=O)CC)[nH]c2cc(C(F)(F)F)c(C#N)cc12` (single isomer, unassigned) [Compound 354] belongs “active”; to `CC(C)(O)c1[nH]c2cc(C(F)(F)F)c(C#N)cc2c1I` [Compound 278], “active”.
The same measure, in the same setting: to `CSCn1c(C(C)(O)C(F)(F)F)cc2cc(C#N)c(C(F)(F)F)cc21` (racemic) [Compound 333] belongs “active”.
As to `CCSCC(C)(O)c1c(C)c2cc(C#N)c(C(F)(F)F)cc2n1C` (single isomer, unassigned) [Compound 317], the “active / inactive: inhibition” value is “inactive”.
Consider `N#Cc1cc2cc(C3(O)CCSC3)[nH]c2cc1C(F)(F)F` (racemic) [Compound 15], for which the “active / inactive: inhibition” value was “inactive”.
For `CCSCC(C)(O)c1cc2cc(C#N)c(Cl)cc2[nH]1` (racemic) [Compound 224], the “active / inactive: inhibition” value is listed as “active”.
For `CC(C)(O)c1[nH]c2cc(C(F)(F)F)c(Cl)cc2c1Cl` [Compound 282], the “active / inactive: inhibition” value was “inactive”.
In the case of `CCSCC(C)(O)c1cc2cc(Cl)ccc2[nH]1` (racemic) [Compound 353], the “active / inactive: inhibition” value was “inactive”.
With `CCSCC(C)(O)c1cc2cc([N+](=O)[O-])c(C(F)(F)F)cc2o1` (racemic) [Compound 9], the “active / inactive: inhibition” value is “inactive”.
Take `CCSCC(O)(CSCC)c1cc2cc([N+](=O)[O-])c(C(F)(F)F)cc2[nH]1` [Compound 13]: the “active / inactive: inhibition” value was “inactive”.
Take `CC(O)(c1cc2cc(C#N)c(C(F)(F)F)cc2n1CC#N)C(F)(F)F` (racemic) [Compound 331]: the “active / inactive: inhibition” value is given as “active”.
For the compound `CC(O)(c1cc2cc(C#N)c(C(F)(F)F)cc2[nH]1)C(F)(F)F` (stereo not shown) [Compound 334, 2-(2,2,2-Trifluoro-1-hydroxy-1-methyl-ethyl)-6-trifluoromethyl-1H-indole-5-carbonitrile], the “active / inactive: inhibition” value is listed as “active”.
Regarding `OC1(c2cc3cc(Cl)c(C(F)(F)F)cc3[nH]2)CCSC1` (racemic) [Compound 14], the “active / inactive: inhibition” value is “inactive”.
`CCS(=O)(=O)CC(C)(O)c1cc2cc(C#N)c(C(F)(F)F)cc2[nH]1` (single isomer, unassigned) [Compound 397]: the “active / inactive: inhibition” value was “inactive”.
For `CCSCC(C)(O)c1[nH]c2cc(C(F)(F)F)c([N+](=O)[O-])cc2c1I` (single isomer, unassigned) [Compound 241], the “active / inactive: inhibition” value is “inactive”.
